Consider three compounds from patent US5389644A, “1,4-dihydropyridine compounds” (priority 1992, dated 1995).

Each structure is given as a SMILES string.

In one test the test system is DC-3F/AD. Kind of test: Cytotoxicity: reversal of resistance to actinomycin D (reversion factor), line DC-3F/AD. The format is cell-based, Chinese hamster. As for the experimental part: The parameter measured is the cytotoxicity of the antitumour drug, quantified in the absence and in the presence of the reversing compound. Two resistant cell lines were used: 1 Chinese hamster lung line, DC-3F/AD, the resistance of which was induced by actinomycin D. […] The compounds tested for their capacity to reverse the resistance are added at the same time as the cytotoxic agent. The cells are then incubated for 4 days.

In test [1] the test system is KB-A1. Briefly: Cytotoxicity: reversal of resistance to adriamycin (reversion factor), line KB-A1. In kind it is cell-based, Human. As for the experimental part: The parameter measured is the cytotoxicity of the antitumour drug, quantified in the absence and in the presence of the reversing compound. […] The compounds tested for their capacity to reverse the resistance are added at the same time as the cytotoxic agent. The cells are then incubated for 4 days.

Test [2] deals with KB-A1. Kind of test: Flow cytometry: intracellular accumulation of ADR, line KB-A1. In kind it is cell-based, Human. The settings on record: ADR 50 μM, 5 hours. As for the experimental part: Also measured was the effect of the compounds on the intracellular concentration of adriamycin. […] By measuring that fluorescence, it is thus possible to obtain a relative measurement of the intracellular concentration of ADR. […] The cells (5×10^5 per ml) were exposed simultaneously to ADR at a fixed concentration (50 μM) and to the tested compounds at various concentrations. After 5 hours' incubation, the intracellular accumulation of ADR was evaluated by FCM. […] The results were presented in the form of linear histograms of the intracellular ADR fluorescence. Expression of the results: for each of the histograms the mean fluorescence per channel (MEAN) was determined by the computer of the apparatus. For all experiments: a negative control (cells without ADR) fixed the autofluorescence threshold. a positive control (cells with ADR) determined the MEAN value=MN1. the "test" tubes (cells with ADR and with compound) were used to determine, for each of the compounds and at each of the concentrations, the MEAN values=MN2. The results are expressed in the form of variations from the mean fluorescence obtained for each of the "test" tubes (MN2) in relation to the mean fluorescence obtained with the positive control (MN1): VAR-MEAN=MN2-MN1. The measured parameter is thus the increase in ADR fluorescence in the presence of the tested compounds.
For orientation: A flow cytometer gives signals particle by particle.

For the next test, the system named is Plasmodium falciparum. To be noted: literature (Krogstad; Martin; Deloron); cited from earlier work.
The next test concerns P 388/VCR. Kind of test: In vivo increase in antitumour activity of vincristine, resistant line P 388/VCR. Also noted: species or system murine leukaemia in female B6D2F1 mice. The text has this: This study was completed by an in vivo study, using a murine leukaemia resistant to vincristine (P 388/VCR) and using the compounds of the present invention in association with vincristine.
(§1) The sensitive parent line P 388 (murine leukaemia) and the sub-line resistant to vincristine, P 388/VCR, were supplied by NCI (Frederick, USA). The tumour cells (10^6 cells) were inoculated on day 0 into the indraperitoneal cavity of female B6D2F1 mice (Iffa Credo, France) weighing from 18 to 20 g (groups of 8 to 10 animals).
Every day for 4 days, starting from day 1, the animals received:
an administration of 25 to 150 mg/kg by i.p., p.o. or i.v. route of the compound of the present invention to be tested, as mentioned in the table 4a; then
(§2) 30 to 60 minutes later, an administration by the i.p. route of 0.25 mg/kg of vincristine (used as a reference antitumour agent).
(§3) The antitumour activity is expressed as follows: [formula]
(§4) The values are mean values obtained in independent experiments (# sem when n is greater than or equal to 3).

In a further test the test system is P 388. Kind of test: In vivo increase in antitumour activity of vincristine, sensitive line P388. Also noted: species or system murine leukaemia in female B6D2F1 mice. The settings on record: compound 150 mg/kg p.o. On the procedure: as §1
Every day for 4 days, starting from day 1, the animals received: […]
as §2, §3, §4
Using the sensitive line (P388) the tested compounds of the invention increase considerably the sensitivity of the cells to vincristine.

In a further test the target is T1, calcium channel (Sus scrofa, UniProt A0A8W4FNC0).
T1 construct: pig aorta smooth muscle microsome preparations; from tissue; host or cells: pig aorta smooth muscle microsomes
T1 sequence (A0A8W4FNC0 1-2067): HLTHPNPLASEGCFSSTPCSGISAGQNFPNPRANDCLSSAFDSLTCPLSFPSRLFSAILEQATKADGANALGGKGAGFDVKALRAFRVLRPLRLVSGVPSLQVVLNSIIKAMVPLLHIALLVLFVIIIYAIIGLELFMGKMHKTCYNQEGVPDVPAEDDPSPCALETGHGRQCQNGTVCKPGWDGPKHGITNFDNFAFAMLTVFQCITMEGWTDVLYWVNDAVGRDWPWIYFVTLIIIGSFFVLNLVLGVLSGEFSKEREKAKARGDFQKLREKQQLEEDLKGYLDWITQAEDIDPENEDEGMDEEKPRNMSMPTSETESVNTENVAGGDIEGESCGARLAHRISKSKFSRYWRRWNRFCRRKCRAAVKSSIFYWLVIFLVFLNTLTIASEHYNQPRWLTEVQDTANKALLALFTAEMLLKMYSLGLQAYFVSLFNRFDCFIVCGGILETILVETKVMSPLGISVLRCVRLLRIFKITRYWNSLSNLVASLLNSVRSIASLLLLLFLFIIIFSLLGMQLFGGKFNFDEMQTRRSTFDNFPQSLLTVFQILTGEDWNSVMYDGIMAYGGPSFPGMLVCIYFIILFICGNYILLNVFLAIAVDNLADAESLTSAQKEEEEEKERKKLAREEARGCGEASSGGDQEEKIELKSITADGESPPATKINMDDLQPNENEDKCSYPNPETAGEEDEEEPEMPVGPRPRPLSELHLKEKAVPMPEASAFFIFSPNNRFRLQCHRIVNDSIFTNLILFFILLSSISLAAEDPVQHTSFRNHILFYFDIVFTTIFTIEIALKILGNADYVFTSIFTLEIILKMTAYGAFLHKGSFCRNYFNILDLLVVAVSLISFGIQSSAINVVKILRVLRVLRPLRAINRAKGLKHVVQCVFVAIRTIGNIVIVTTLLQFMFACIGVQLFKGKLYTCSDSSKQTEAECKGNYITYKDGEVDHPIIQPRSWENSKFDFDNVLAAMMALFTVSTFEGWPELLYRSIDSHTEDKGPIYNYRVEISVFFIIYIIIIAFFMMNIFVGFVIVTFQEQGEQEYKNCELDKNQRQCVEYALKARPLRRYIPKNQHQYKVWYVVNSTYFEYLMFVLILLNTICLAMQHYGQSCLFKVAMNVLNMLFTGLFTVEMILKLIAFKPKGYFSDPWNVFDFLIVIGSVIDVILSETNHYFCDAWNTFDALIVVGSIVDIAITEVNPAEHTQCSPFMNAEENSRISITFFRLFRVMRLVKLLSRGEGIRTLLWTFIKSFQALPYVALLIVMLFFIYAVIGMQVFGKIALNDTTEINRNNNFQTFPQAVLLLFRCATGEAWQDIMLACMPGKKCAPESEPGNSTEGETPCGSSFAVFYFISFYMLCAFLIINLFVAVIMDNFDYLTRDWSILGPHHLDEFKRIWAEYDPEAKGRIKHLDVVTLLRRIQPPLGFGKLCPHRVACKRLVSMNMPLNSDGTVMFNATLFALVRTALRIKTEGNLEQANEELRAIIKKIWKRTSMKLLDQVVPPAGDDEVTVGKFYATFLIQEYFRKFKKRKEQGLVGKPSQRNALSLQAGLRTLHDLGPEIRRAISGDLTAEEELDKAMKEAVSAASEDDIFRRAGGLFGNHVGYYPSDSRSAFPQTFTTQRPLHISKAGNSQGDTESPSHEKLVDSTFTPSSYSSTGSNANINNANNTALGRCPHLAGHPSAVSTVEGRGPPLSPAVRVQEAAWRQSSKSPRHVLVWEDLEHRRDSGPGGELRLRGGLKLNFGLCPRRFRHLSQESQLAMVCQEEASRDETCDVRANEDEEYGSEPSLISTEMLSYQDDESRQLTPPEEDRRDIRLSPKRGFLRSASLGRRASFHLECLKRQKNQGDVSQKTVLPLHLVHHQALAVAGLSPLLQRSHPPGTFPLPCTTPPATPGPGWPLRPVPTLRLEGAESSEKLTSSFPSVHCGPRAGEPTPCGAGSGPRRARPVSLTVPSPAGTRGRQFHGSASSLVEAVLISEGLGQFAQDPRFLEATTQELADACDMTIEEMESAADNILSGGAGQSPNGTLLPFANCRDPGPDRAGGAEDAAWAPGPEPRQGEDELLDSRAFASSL
Briefly: Affinity for the calcium channel labelled with [^3 ] PN 200110, aorta smooth muscle microsome preparations. To be noted: pig aorta smooth muscle microsomes; means of three independent experiments. In kind it is binding. The text has this: The results are expressed as IC50 (M) and represent means of three independent experiments.

As to `CCOC(=O)C1=C(COCCN)NC(C)=C(C(=O)OC)C1c1ccccc1Cl` (stereo not shown) [AMLODIPINE, amlodipine, reference compound], the “reversion factor (RF)” value with DC-3F/AD (compound 1 μM) worked out at 1.0; with DC-3F/AD (compound 5 μM) it was 2.6; in the test with KB-A1 [1] (compound 1 μM), 1.5; with KB-A1 [1] (compound 5 μM) it was 5.9. The “increase in the ADR fluorescence (VAR-MEAN)” value (from here on “increase”) with KB-A1 [2] (compound 1 μM) was 0.0; with KB-A1 [2] (compound 5 μM) it was 4.7; with KB-A1 [2] (compound […]) it was 2.1. In addition, the “sensitivity of a chloroquine-resistant line to chloroquine” value with Plasmodium falciparum is recorded as “restores the sensitivity of a line resistant to chloroquine”.
`CCOC(=O)C1=C(COCCOCCNCc2ccsc2)NC(C)=C(C(=O)OC)C1c1cccc(Cl)c1Cl` (stereo not drawn) [Example 14, d-2-{[2-(2-(N-thien-3-ylmethylamino)ethoxy)ethoxy]methyl}-4-(2,3-dichlorophenyl)-3-ethoxycarbonyl-5-methoxycarbonyl-6-methyl-1,4-dihydropyridine]: the “reversion factor (RF)” value is on record as 8.2 with DC-3F/AD (compound 1 μM), 4,463.2 in the test on DC-3F/AD (compound 5 μM), 22.7 in the test with KB-A1 [1] (compound 1 μM) and 169.4 in the test on KB-A1 [1] (compound 5 μM). In addition, the “increase” value amounted to 2.4 in the test on KB-A1 [2] (compound 1 μM), 20.5 in the test with KB-A1 [2] (compound 5 μM) and 8.2 in the test on KB-A1 [2] (compound […]). The T/C (as a rule, the result in the treated group divided by that in the control group, in per cent) is 99% in the test on P 388/VCR (VCR 0, compound 50 mg/kg i.p.); 103% with P 388/VCR (VCR 0, compound 150 mg/kg p.o.); 164% in the test with P 388/VCR (with VCR […] i.p., compound 50 mg/kg i.p.); 200% in the test on P 388/VCR (with VCR […] i.p., compound 150 mg/kg p.o.); 95% with P 388 (VCR 0); > 587% with P 388 (with VCR […] i.p.). In addition, the “Survivors on day 60” value in the test on P 388 (with VCR […] i.p.) is reported as 4/8. Further, on calcium channel, the 50% inhibitory concentration (IC50) – broadly, the concentration that gives 50% inhibition – came out at 1000 nM.
Regarding `COc1ccc(CCN(C)CCCC(C#N)(c2ccc(OC)c(OC)c2)C(C)C)cc1OC` (stereo not shown) [verapamil, reference compound], the “reversion factor (RF)” value with DC-3F/AD (compound 1 μM) worked out at 1.0; in the test with DC-3F/AD (compound 5 μM), 3.1; in the test with KB-A1 [1] (compound 1 μM), 4.6; in the test with KB-A1 [1] (compound 5 μM) it was 26.0. Besides, the entries for the “increase” value with KB-A1 [2] (compound 1 μM), in the test on KB-A1 [2] (compound 5 μM) and in the test on KB-A1 [2] (compound […]) were 3.7, 12.2 and 8.6, respectively. In addition, the “sensitivity of a chloroquine-resistant line to chloroquine” value with Plasmodium falciparum is given as “restores the sensitivity of a line resistant to chloroquine”.
